Earlier results, collected in patent publication EP1790727A2, “Proteins and nucleic acids encoding same” (Curagen Corporation, priority 2000, dated 2002).
Like-named read-outs stand apart in the source and are kept apart here.

Assays:
[1] = target: MgATP-actin (Homo sapiens, UniProt P68133); details: but not CaATP-actin
[2] = for increased reepithelialization over saline controls: topically or intraperitoneally
[3] = system: keratinocyte; details: after 4-5 h; as little as 10 pg of Tbeta4
[4] = in vivo, mouse paw
[5] = system: neutrophil; details: in vitro

Row | Substance | proteolysis at Gly(46) on subdomain 2, faster when Tbeta(4) is bound [1] [times] | wound contraction more than controls ([2]; by day 7) | collagen deposition and angiogenesis in the treated wounds ([2]; rat, in vivo) | increased reepithelialization over saline controls ([2]; at 4 d) [%] | increased reepithelialization over saline controls ([2]; at 7 d post-wounding) [%] | migration stimulated over migration with medium alone [3] | carrageenin-induced edema [4] | neutrophil chemotaxis [5]
1 | thymosin beta4 [Tbeta4] | > 12 | at least 11% | Increased | 42 | ≤ 61 | 2-3 fold | not | –
2 | thymosin beta4 sulfoxide | – | – | – | – | – | – | potent inhibitor | inhibited
